# From patent US20230317203A1, “SCREENING METHOD” (University of Leeds, priority 2022, published 2023)
# Legend:
# BRISC BRCC36 Thr128Pro = BRISC BRCC36 Thr128Pro (Homo sapiens, UniProt P46736+Q15018+Q9NXR7, T128P); assay: Mass photometry, BRISC mutant BRCC36 Thr128Pro; type: binding; conditions: BRCC36 Thr128Pro (inactive mutant)
# Description: (§1) Microscope coverslips were prepared as previously described^33. All mass photometry experiments were performed using a One^MP mass photometer (Refeyn Ltd, Oxford, UK). For preliminary BRISC-inhibitor measurements, 1 μM BRISC(FL) was mixed with either DMSO or inhibitor at 330 μM and incubated for 15 minutes on ice. Prior to MP measurement, the BRISC-inhibitor mix was diluted in gel filtration buffer (25 mM HEPES, 150 mM NaCl, 1 mM TCEP) for a final concentration of BRISC at 10 nM (0.05% DMSO). 12 μL of this dilution was used for the final MP measurement, following autofocus stabilisation. […] Movies were recorded for 60 seconds using AcquireMP (Refeyn, UK), and were processed using DiscoverMP (Refeyn, UK). […] The relative amount of each species is calculated as the area of each Gaussian, where a refers to the standard deviation of the fitted Gaussian. […] Curves were fitted and EC50 values were calculated using the GraphPad Prism (v8.0) built-in dose-response equation for concentration of agonist vs. response (variable slope).
# (§2) The cryo-EM structures of BRISC bound to molecular glues allowed picking of selective mutations to probe the BRISC-compound interaction site and to assess the contribution of each interacting residue for inhibition and gluing activity. […] For the remaining active 13 mutants (FIGS. 11C, 11D) inhibitor IC50s were calculated against BRISC DUB activity. […]
# BRISC Abraxas2 Ile133Trp = BRISC Abraxas2 Ile133Trp (Homo sapiens, UniProt P46736+Q15018+Q9NXR7, I133W); assay: IQF DUB assay, BRISC mutant Abraxas2 Ile133Trp; type: biochemical; conditions: FIG. 4B
# Description: (§3) The four-subunit human BRISC (full-length (FL) and MERIT40ΔN, Abraxas2ΔC) complex was cloned using the MultiBac system and co-expressed in Spodoptera frugiperda (Sf9) insect cells^32. BRISC mutants were cloned into pFastBac vectors in the Bac-to-Bac system (ThermoFisher), baculoviruses generated in Sf9 cells and used for co-infection of Trichoplusia ni (Tni) cells. All BRISC complexes were purified as previously described^12,13.
# (§4) BRISC complexes were tested for activity in DUB reaction buffer containing 50 mM HEPES-NaOH pH 7.0, 100 mM NaCl, 0.1 mg/mL BSA, 1 mM DTT, and 0.003% Brij-35. […] Inhibitors were assayed at concentrations up to 200 μM. […] DUB activity was measured using internally quenched fluorescent (IQF) K63-linked diUb (Lifesensors, catalogue number: DU6303) at 50 or 100 nM. Cleaved diUb was monitored by measuring fluorescence intensity (Ex. 540 nm, Em. 580 nm; dichroic mirror 560 nm). Fluorescence intensity was measured every minute for 30 minutes at 30° C. Fluorescence intensity units for the first 10 minutes were plotted against time to generate a linear reaction progress curve, where the initial velocity (v0) corresponds to the gradient of the curve. IC50 values were calculated using the GraphPad Prism (v8.0) built-in dose-response equation for inhibitor concentration vs. response (variable slope). […]
# BRISC BRCC45 mutants = assay: IQF DUB assay, BRISC BRCC45 mutants; type: biochemical, human; conditions: four BRCC45 residues mutated, FIG. 4B
# Description: as §3, §4
# BRISC = BRISC (Homo sapiens, UniProt P46736+Q15018+Q9NXR7); assay: BRISC-mediated tetraubiquitin chain cleavage by Western blotting; type: biochemical; design: made in house; host or cells: Spodoptera frugiperda (Sf9) insect cells; conditions: K63-linked Ub4, Western blot, FIG. 6B
# Text: The potency of these analogues was characterised in the IQF assay with a fluorescent di-ubiquitin substrate. […] We confirmed the ability of these inhibitors to block BRISC-mediated tetraubiquitin chain cleavage by Western blotting (FIG. 6B).
# BRISC BRCC36 Ile158Lys = BRISC BRCC36 Ile158Lys (Homo sapiens, UniProt P46736+Q15018+Q9NXR7, I158K); assay: Mass photometry, BRISC mutant BRCC36 Ile158Lys; type: binding; conditions: BRCC36 Ile158Lys (inactive mutant)
# Description: as §1, §2
# BRISC Abraxas2 Thr135Lys = BRISC Abraxas2 Thr135Lys (Homo sapiens, UniProt P46736+Q15018+Q9NXR7, T135K); assay: IQF DUB assay, BRISC mutant Abraxas2 Thr135Lys; type: biochemical; conditions: FIG. 4B
# Description: as §3, §4
# BRISC BRCC36 Leu169Ala = BRISC BRCC36 Leu169Ala (Homo sapiens, UniProt P46736+Q15018+Q9NXR7, L169A); assay: IQF DUB assay, BRISC mutant BRCC36 Leu169Ala; type: biochemical; conditions: FIG. 4B
# Description: as §3, §4
# BRISC BRCC36 Arg167Ala = BRISC BRCC36 Arg167Ala (Homo sapiens, UniProt P46736+Q15018+Q9NXR7, R167A); assay: IQF DUB assay, BRISC mutant BRCC36 Arg167Ala; type: biochemical; conditions: FIG. 4B
# Description: as §3, §4
# BRISC(FL) = target: T1, BRISC(FL) (Homo sapiens, UniProt P46736+Q15018+Q9NXR7); assay: Native mass spectrometry of BRISC with inhibitor; type: binding; conditions: 10 μM BRISC(FL), 1 mM inhibitor
# T1 construct: The four-subunit human BRISC (full-length (FL) and MERIT40ΔN, Abraxas2ΔC) complex was cloned; made in house; host or cells: Spodoptera frugiperda (Sf9) insect cells
# Description: Samples were buffer exchanged into 500 mM ammonium acetate using Zeba Spin 7K MWCO desalting columns (ThermoFisher). Gold and palladium coated nanospray tips were prepared in-house and mounted on the nano-electrospray ionisation source. Mass spectra were acquired on a Q Exactive Ultra-High Mass Range Hybrid Quadrupole-Orbitrap mass spectrometer (Thermo Fisher), optimised for mass resolution at high m/z ratios. Data were visualised and processed using Mass Lynx (v4.1) and UniDec (v2.7.1).
smiles,measurement,setting,value
O=C(NC1C2CNCC21)c1nn(C(=O)c2c(Cl)cccc2Cl)cc1NC(=O)c1c(Cl)cccc1Cl (stereo not drawn) [FX-171-C],inhibitor-induced dimerisation,BRISC BRCC36 Thr128Pro,still formed a dimer
same,inhibitor sensitivity of mutant,BRISC Abraxas2 Ile133Trp,no effect on inhibitor sensitivity
same,ability to recognise the inhibitor,BRISC BRCC45 mutants,reduced
same,inhibition of tetraubiquitin chain cleavage,BRISC,Dose-dependent inhibition
same,inhibitor-induced dimerisation,BRISC BRCC36 Ile158Lys,reduction in the inhibitor-induced dimerisation effect
same,inhibitor sensitivity of mutant,BRISC Abraxas2 Thr135Lys,no effect on inhibitor sensitivity
same,inhibitor sensitivity of mutant,BRISC BRCC36 Leu169Ala,severely affected
same,inhibitor sensitivity of mutant,BRISC BRCC36 Arg167Ala,remained inhibitor sensitive
same,BRISC species by native mass spectrometry,BRISC(FL),BRISC dimers with a MW consistent with a 4:4:4:4 stoichiometry were observed
